Square brackets hold non-standard residues; d marks the D form. Peptide text beside a SMILES is read from it. * marks the point of attachment. His(Trt) = N[C@@H](Cc1cn(C(c2ccccc2)(c2ccccc2)c2ccccc2)cn1)C(=O)O; His(τ-CHPh2) = N[C@@H](Cc1cn(C(c2ccccc2)c2ccccc2)cn1)C(=O)O; Biotin = O=C1N[C@H]2[C@H](CS[C@H]2CCCCC(=O)*)N1; dPhe(4-CF3) = N[C@H](Cc1ccc(C(F)(F)F)cc1)C(=O)O; dPhe(4-Me) = Cc1ccc(C[C@@H](N)C(=O)O)cc1; Phe(4-Me) = Cc1ccc(C[C@H](N)C(=O)O)cc1; d2Nal = N[C@H](Cc1ccc2ccccc2c1)C(=O)O; d3Pal = N[C@H](Cc1cccnc1)C(=O)O; Octanoyl = CCCCCCCC(=O)*; Orn = NCCC[C@H](N)C(=O)O; Boc = CC(C)(C)OC(=O)*

The values that follow come from US20230212222A1 (ANYGEN CO., LTD., priority 2020, published 2023).

Data set [1] addresses T1, GPR39 (Homo sapiens, UniProt O43194).
T1 sequence (O43194 1-453): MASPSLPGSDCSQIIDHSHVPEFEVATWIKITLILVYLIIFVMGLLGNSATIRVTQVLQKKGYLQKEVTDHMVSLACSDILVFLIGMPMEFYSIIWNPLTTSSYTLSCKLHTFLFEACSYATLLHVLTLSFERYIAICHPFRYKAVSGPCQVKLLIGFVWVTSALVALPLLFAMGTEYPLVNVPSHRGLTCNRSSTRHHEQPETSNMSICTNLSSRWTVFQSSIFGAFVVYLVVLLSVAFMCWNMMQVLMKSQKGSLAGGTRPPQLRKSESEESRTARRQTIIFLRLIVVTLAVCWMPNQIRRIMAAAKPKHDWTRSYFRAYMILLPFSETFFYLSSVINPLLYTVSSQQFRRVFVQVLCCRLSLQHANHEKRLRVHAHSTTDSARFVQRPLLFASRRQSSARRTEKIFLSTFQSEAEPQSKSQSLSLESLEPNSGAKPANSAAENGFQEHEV
Procedure: (§1) Specifically, the fibroblast cell line CV-1 (1×10^5 cells/ml, Korea Cell Line Bank) was cultured in a 96 well cell culture plate for 24 hours, and then treated with GPR39 inserted into adenovirus and SRE (serum response element) luciferase at 50 MOI (multiplicity of infection) and 25 MOI virus for 3 hours, respectively, and then cultured for 24 hours.

For data set [2], the target named is T1, GPR39. The data set is described as follows: luciferase assay system (SRE luciferase reporter gene) for GPR39 in CV-1 cells. The following applies: EC50, CV-1 cells, GPR39 and SRE luciferase adenovirus, treated 6 hours, luminometer.
Procedure: as §1

As for `CCCCCCCC(=O)NCCC[C@H](NC(=O)[C@@H](N)Cc1cn(C(c2ccccc2)c2ccccc2)cn1)C(=O)N[C@H](Cc1ccc(C)cc1)C(=O)N[C@@H](Cc1ccc(O)cc1)C(=O)O` [HKFY-71, ((R)-2-((S)-2-((S)-2-amino-3-(1-benzhydryl-1H-imidazol-4-yl)propanamido)-5-octanamidopentanamido)-3-(p-tolyl)propanoyl)-L-tyrosine] (H-[His(τ-CHPh2)][Orn](Octanoyl)[dPhe(4-Me)]Y-OH), at GPR39 [1], the “ECmax (-fold induction over basal)” value is 16.4 ± 2.51 -fold induction over basal. The compound also had an EC50 on GPR39 [2] of 12 ± 3 nM.

For the compound `CCCCCCCC(=O)NCCCC[C@H](NC(=O)[C@H](Cc1cn(C(c2ccccc2)c2ccccc2)cn1)NC(=O)CCCC[C@@H]1SC[C@@H]2NC(=O)N[C@@H]21)C(=O)N[C@@H](Cc1ccc(C)cc1)C(=O)N[C@@H](Cc1ccc(O)cc1)C(=O)O` [HKFY-72, ((S)-2-((S)-2-((S)-3-(1-benzhydryl-1H-imidazol-4-yl)-2-(5-((3aS,4S,6aR)-2-oxohexahydro-1H-thieno[3,4-d]imidazol-4-yl)pentanamido)propanamido)-6-octanamidohexanamido)-3-(p-tolyl)propanoyl)-L-tyrosine] (Biotin-[His(τ-CHPh2)]K(Octanoyl)[Phe(4-Me)]Y-OH), the “ECmax (-fold induction over basal)” value on GPR39 [1] is 10.4 ± 1.12 -fold induction over basal. Further, the EC50 at GPR39 [2] came out at 11 ± 2 nM.

As for `CCCCCCCC(=O)NCCCC[C@H](NC(=O)[C@@H](N)Cc1cn(C(c2ccccc2)(c2ccccc2)c2ccccc2)cn1)C(=O)N[C@H](Cc1cccnc1)C(=O)N[C@@H](Cc1ccc(O)cc1)C(=O)O` [HKFY-73, ((R)-2-((S)-2-((S)-2-amino-3-(1-trityl-1H-imidazol-4-yl)propanamido)-6-octanamidohexanamido)-3-(pyridin-3-yl)propanoyl)-L-tyrosine] (H-[His(Trt)]K(Octanoyl)[d3Pal]Y-OH), the “ECmax (-fold induction over basal)” value on GPR39 [1] is given as 11.6 ± 2.3 -fold induction over basal. The EC50 at GPR39 [2] stood at 23 ± 1 nM.

`CCCCCCCC(=O)NCCCC[C@H](NC(=O)[C@@H](N)Cc1cn(C(c2ccccc2)(c2ccccc2)c2ccccc2)cn1)C(=O)N[C@H](Cc1ccc2ccccc2c1)C(=O)N[C@@H](Cc1ccc(O)cc1)C(=O)O` [HKFY-74, ((R)-2-((S)-2-((S)-2-amino-3-(1-trityl-1H-imidazol-4-yl)propanamido)-6-octanamidohexanamido)-3-(naphthalen-2-yl)propanoyl)-L-tyrosine] (H-[His(Trt)]K(Octanoyl)[d2Nal]Y-OH): the “ECmax (-fold induction over basal)” value on GPR39 [1] is 18.8 ± 3.2 -fold induction over basal. Besides, a half-maximal response at GPR39 [2] (EC50) required 8 ± 1 nM.

For the compound `CCCCCCCC(=O)NCCCC[C@H](NC(=O)[C@@H](N)Cc1cn(C(c2ccccc2)(c2ccccc2)c2ccccc2)cn1)C(=O)N[C@H](Cc1ccc(C(F)(F)F)cc1)C(=O)N[C@@H](Cc1ccc(O)cc1)C(=O)O` [HKFY-76, ((R)-2-((S)-2-((S)-2-amino-3-(1-trityl-1H-imidazol-4-yl)propanamido)-6-octanamidohexanamido)-3-(4-(trifluoromethyl)phenyl)propanoyl)-L-tyrosine] (H-[His(Trt)]K(Octanoyl)[dPhe(4-CF3)]Y-OH), the “ECmax (-fold induction over basal)” value on GPR39 [1] was 14.2 ± 3.75 -fold induction over basal. This compound also registered an EC50 at GPR39 [2] of 7 ± 1 nM.

Turning to `CCCCCCCC(=O)NCCCC[C@H](NC(=O)[C@@H](N)Cc1cn(Cc2ccc(-c3ccccc3-c3nnn[nH]3)cc2)cn1)C(=O)N[C@H](Cc1ccc(C)cc1)C(=O)N[C@@H](Cc1ccc(O)cc1)C(=O)O` [HKFY-77, ((R)-2-((S)-2-((S)-3-(1-((2′-(1H-tetrazol-5-yl)-[1,1′-biphenyl]-4-yl)methyl)-1H-imidazol-4-yl)-2-aminopropanamido)-6-octanamidohexanamido)-3-(p-tolyl)propanoyl)-L-tyrosine], the “ECmax (-fold induction over basal)” value at GPR39 [1] is reported as 11.6 ± 2.14 -fold induction over basal. At GPR39 [2], the response was half-maximal at 7 ± 2 nM (EC50).

As to `CCCCCCCC(=O)NCCCC[C@H](NC(=O)[C@H](Cc1c[nH]c2ccccc12)NC(=O)OC(C)(C)C)C(=O)N[C@H](Cc1ccc(C)cc1)C(=O)N[C@@H](Cc1ccc(O)cc1)C(=O)O` [HKFY-78, ((R)-2-((S)-2-((S)-2-((tert-butoxycarbonyl)amino)-3-(1H-indol-3-yl)propanamido)-6-octanamidohexanamido)-3-(p-tolyl)propanoyl)-L-tyrosine] (Boc-WK(Octanoyl)[dPhe(4-Me)]Y-OH), on GPR39 [1], the “ECmax (-fold induction over basal)” value is on record as 11.4 ± 1.54 -fold induction over basal. At GPR39 [2], this compound returned an EC50 of 9 ± 1 nM.

Usually EC50 stands for the concentration giving half of the maximal effect. Read a high EC50 as lower potency in that assay.
